What was measured:
[1] = target: Sodium/hydrogen exchanger 1 (Homo sapiens, UniProt P19634); experiment: pHi change assay with SLC9A1
[2] = target: 5-hydroxytryptamine receptor 2A (Homo sapiens, UniProt P28223); experiment: GPCRScan assay: inhibition of 5-HT2A; design: radioligand conc. used [nm] 1.2 – 2.4, parental cells HEKT
[3] = target: Voltage-dependent L-type calcium channel subunit alpha-1C (diltiazem site) (Rattus norvegicus, UniProt P22002); experiment: CA+/DILSI/RA Eurofins-Panlabs selectivity data (BI); settings: compound concentration 10 uM, read-out: % Ctrl
Sequence of Voltage-dependent L-type calcium channel subunit alpha-1C (diltiazem site) (P22002 whole entry): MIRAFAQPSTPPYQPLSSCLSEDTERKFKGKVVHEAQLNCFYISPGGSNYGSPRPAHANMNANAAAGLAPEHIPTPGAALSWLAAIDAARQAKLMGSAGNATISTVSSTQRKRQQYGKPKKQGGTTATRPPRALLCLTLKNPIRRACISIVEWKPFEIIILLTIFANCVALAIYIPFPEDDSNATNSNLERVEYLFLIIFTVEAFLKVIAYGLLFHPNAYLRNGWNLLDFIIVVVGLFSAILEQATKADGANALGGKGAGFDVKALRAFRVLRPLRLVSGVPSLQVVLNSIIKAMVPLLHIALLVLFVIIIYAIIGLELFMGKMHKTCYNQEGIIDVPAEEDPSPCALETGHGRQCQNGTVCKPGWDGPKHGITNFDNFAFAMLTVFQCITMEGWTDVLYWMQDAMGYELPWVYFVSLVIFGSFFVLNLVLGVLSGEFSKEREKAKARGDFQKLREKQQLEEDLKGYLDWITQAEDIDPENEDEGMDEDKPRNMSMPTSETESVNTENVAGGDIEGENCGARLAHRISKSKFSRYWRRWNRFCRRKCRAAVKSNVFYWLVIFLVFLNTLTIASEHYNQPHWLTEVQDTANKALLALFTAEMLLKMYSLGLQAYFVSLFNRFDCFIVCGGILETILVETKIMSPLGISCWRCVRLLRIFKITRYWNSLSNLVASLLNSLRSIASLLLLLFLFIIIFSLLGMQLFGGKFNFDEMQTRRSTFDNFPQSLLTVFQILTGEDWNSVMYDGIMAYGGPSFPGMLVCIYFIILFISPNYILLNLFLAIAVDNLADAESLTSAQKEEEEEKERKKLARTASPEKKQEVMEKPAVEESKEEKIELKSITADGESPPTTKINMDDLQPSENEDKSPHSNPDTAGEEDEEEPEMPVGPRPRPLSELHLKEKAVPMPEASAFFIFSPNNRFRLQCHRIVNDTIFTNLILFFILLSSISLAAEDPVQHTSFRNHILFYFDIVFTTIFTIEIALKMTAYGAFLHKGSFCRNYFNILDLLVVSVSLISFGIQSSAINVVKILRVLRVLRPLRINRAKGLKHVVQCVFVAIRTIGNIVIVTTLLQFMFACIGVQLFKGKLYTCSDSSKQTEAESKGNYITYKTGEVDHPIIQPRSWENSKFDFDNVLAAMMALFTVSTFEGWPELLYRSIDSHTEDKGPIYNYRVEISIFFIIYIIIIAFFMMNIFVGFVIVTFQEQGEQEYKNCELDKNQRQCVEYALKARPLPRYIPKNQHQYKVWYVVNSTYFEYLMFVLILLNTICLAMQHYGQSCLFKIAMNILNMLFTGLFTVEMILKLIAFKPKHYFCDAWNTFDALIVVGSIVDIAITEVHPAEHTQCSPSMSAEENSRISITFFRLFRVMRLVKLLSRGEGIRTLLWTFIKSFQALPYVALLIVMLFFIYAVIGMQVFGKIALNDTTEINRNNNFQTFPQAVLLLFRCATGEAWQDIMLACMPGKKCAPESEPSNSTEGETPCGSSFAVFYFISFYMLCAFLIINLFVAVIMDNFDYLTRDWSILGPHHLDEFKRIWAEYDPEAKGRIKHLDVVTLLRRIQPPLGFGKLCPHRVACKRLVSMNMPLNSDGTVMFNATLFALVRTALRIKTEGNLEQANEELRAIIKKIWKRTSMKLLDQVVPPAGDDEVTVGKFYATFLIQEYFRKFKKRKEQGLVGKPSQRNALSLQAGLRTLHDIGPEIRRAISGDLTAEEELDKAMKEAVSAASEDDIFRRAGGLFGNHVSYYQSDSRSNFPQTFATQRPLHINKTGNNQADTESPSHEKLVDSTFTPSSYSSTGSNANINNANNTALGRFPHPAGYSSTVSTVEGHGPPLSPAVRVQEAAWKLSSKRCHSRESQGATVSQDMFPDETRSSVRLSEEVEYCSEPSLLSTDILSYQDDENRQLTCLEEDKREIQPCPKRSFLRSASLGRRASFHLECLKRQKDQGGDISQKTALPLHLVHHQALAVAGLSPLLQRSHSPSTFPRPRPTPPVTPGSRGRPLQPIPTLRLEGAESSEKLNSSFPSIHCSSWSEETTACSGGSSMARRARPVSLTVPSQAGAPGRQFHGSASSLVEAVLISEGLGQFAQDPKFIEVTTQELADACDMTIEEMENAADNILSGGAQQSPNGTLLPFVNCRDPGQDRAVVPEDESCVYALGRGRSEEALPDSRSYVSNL

[4] = target: D(3) dopamine receptor (Homo sapiens) (UniProt P35462); experiment: D3/HU Eurofins-Panlabs selectivity data (BI); settings: Compound concentration 10.0 uM
Sequence of D(3) dopamine receptor (Homo sapiens) (P35462 whole entry): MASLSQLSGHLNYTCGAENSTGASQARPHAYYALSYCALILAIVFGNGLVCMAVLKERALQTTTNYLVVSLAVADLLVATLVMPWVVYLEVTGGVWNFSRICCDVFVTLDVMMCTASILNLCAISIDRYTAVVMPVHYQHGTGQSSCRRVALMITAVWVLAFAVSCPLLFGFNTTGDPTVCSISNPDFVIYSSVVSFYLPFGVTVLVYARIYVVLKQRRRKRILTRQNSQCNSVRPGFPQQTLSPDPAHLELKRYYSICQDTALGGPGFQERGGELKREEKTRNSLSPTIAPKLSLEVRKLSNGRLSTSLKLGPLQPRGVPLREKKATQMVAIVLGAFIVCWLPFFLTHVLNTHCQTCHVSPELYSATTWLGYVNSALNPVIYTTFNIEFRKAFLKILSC

[5] = target: Gamma-aminobutyric acid receptor subunit alpha-1 (Rattus norvegicus) (UniProt P62813); experiment: GABAA MUSCIMOL CENT Eurofins-Panlabs selectivity data (BI); settings: Compound concentration 10.0 uM
Sequence of Gamma-aminobutyric acid receptor subunit alpha-1 (Rattus norvegicus) (P62813 whole entry): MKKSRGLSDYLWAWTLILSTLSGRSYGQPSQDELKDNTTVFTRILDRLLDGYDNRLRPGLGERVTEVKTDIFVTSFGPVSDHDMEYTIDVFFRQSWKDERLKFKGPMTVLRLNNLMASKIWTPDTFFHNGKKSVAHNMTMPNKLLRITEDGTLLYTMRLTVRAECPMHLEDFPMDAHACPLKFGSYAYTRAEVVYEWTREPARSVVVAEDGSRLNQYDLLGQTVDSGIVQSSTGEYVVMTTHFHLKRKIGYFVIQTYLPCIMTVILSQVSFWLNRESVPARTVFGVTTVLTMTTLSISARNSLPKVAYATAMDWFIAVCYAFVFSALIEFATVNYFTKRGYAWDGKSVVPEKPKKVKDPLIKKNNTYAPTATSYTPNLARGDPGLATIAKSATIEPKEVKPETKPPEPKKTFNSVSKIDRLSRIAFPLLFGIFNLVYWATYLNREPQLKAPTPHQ

[6] = target: Sodium- and chloride-dependent GABA transporter 1 (Rattus norvegicus) (UniProt P23978); experiment: GABATRANS/RA Eurofins-Panlabs selectivity data (BI); settings: Compound concentration 10.0 uM
[7] = target: T1, Muscarinic acetylcholine receptor M1 (Homo sapiens) (UniProt P11229); experiment: M1/HU Eurofins-Panlabs selectivity data (BI); settings: Compound concentration 10.0 uM
T1 sequence (whole entry): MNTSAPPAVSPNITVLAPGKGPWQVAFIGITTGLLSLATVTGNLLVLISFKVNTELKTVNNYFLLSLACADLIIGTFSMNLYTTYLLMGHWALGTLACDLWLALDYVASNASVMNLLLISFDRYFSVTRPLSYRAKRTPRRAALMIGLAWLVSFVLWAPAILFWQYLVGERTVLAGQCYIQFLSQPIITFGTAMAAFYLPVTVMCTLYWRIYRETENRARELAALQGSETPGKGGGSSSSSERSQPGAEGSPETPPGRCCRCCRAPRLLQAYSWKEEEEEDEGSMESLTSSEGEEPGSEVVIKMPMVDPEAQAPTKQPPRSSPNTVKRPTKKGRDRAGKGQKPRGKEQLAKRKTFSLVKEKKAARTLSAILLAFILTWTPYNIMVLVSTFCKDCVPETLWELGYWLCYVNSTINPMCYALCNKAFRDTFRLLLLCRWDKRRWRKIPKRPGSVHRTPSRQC

[8] = target: T2, Sodium channel alpha subunit (site 2) (Homo sapiens, UniProt P35498+P35499+Q01118+Q14524+Q15858+Q99250+Q9NY46+Q9UI33+Q9UQD0+Q9Y5Y9); experiment: NA+/SITE2AG Eurofins-Panlabs selectivity data (BI); type: protein assay, Cavia porcellus; design: mode of action antagonist; settings: guinea pig; compound concentration 30 uM; read-out: % Ctrl
[9] = target: T2, Sodium channel alpha subunit (site 2); experiment: NA+/SITE2ATG Eurofins-Panlabs selectivity data (BI); type: protein assay, Cavia porcellus; design: mode of action antagonist; settings: guinea pig; compound concentration 30 uM; read-out: % Ctrl
[10] = target: Sodium-dependent noradrenaline transporter (Homo sapiens) (UniProt P23975); experiment: NETRANS/H Eurofins-Panlabs selectivity data (BI); settings: Compound concentration 10.0 uM
Sequence of Sodium-dependent noradrenaline transporter (Homo sapiens) (P23975 whole entry): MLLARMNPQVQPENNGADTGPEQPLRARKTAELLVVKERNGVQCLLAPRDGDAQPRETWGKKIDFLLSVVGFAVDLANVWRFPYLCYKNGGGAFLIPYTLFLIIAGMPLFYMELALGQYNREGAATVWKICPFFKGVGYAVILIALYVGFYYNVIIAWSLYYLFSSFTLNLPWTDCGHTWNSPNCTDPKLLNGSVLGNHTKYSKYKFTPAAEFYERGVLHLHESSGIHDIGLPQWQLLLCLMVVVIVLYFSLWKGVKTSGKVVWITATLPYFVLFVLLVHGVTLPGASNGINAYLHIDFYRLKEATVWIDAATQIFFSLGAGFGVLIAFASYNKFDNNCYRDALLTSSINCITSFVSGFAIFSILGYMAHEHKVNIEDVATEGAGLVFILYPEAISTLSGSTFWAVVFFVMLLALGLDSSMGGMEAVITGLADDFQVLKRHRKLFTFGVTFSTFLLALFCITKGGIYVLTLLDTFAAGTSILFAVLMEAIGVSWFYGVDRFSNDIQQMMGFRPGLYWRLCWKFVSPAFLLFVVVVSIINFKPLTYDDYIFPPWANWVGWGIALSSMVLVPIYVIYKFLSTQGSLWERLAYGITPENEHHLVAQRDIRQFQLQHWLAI

[11] = target: 3',5'-cyclic-AMP phosphodiesterase 4A (Rattus norvegicus) (UniProt P54748); experiment: ROLIPRAM/R Eurofins-Panlabs selectivity data (BI); settings: Compound concentration 10.0 uM
Sequence of 3',5'-cyclic-AMP phosphodiesterase 4A (Rattus norvegicus) (P54748 whole entry): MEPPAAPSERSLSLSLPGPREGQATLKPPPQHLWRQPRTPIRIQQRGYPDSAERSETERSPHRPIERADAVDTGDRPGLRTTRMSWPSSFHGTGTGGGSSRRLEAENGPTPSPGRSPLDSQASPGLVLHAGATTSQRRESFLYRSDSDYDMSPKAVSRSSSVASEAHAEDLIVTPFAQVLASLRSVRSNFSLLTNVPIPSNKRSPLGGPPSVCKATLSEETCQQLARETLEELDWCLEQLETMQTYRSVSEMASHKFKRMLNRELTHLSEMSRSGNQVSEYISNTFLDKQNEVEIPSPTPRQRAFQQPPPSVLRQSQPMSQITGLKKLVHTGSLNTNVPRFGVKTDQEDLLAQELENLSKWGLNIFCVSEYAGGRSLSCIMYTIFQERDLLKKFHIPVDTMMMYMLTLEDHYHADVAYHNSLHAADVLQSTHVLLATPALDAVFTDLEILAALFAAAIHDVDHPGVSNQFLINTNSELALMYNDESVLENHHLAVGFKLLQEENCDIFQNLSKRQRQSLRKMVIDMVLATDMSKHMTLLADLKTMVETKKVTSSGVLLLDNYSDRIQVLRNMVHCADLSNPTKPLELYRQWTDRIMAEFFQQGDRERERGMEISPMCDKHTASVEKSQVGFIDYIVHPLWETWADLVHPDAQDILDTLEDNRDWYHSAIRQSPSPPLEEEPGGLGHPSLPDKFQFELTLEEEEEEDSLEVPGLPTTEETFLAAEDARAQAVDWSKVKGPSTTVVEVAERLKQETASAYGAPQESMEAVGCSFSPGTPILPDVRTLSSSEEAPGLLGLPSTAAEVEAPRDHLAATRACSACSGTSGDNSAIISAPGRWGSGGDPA

Sequence of 5-hydroxytryptamine receptor 2A (P28223 whole entry): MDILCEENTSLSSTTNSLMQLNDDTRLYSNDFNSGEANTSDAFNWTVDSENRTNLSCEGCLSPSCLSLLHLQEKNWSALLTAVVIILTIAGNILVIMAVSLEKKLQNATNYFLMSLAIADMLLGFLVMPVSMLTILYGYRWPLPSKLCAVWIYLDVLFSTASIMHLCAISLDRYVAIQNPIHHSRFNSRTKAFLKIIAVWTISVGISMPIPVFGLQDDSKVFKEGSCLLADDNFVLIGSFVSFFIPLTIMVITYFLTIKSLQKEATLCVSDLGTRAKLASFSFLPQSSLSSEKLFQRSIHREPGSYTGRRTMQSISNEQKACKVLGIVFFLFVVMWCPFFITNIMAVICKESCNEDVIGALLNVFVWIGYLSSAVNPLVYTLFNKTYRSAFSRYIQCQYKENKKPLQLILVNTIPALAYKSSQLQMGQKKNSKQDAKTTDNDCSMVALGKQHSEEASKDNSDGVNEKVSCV

Structure (SMILES)	IC50 [1]	Ki [2] [µM]	activity at 10 µM [3]	residual activity [4] [%]	residual activity [5] [%]	residual activity [6] [%]	residual activity [7] [%]	activity at 30 µM [8]	activity at 30 µM [9]	residual activity [10] [%]	residual activity [11] [%]
CC(=O)N1CCC(c2ccc(C(=O)NC3=NCCN3)cc2C(F)(F)F)CC1 [BI 0054]	> 10 µM (not active)										
CC(=O)N1CCC(c2ccc(C(=O)NC(=N)N)cc2C(F)(F)F)CC1 [BI 9627]		10	68% (not active)	117	89	101	61	100% (not active)	100% (not active)	91	92

— ChEMBL document CHEMBL4507279, “Data for DCP probe BI-9627” (2021)
